Experiments:
Format in all cases: physicochemical
[1] = Magnesium retention in cow milk on standing (Mg content in upper layer)
Description: 3 g of material obtained in Example 1 were added to 1 liter of cow milk during agitation.

[2] = Long-term magnesium retention in UHT-treated soy milk, stored refrigerated (Mg content in upper level)
Description: 120 g of material obtained in Example 1 were added to 40 liters of soy milk, after agitation the mixture passed the well known (in the art) UHT treatment and samples were collected and stored refrigerated.

[3] = Magnesium retention in soy milk on standing (Mg content in upper layer); details: for Mg content: 1 liter, after addition during agitation (initial); for Mg content in upper layer: after retention of two days without agitation
Description: 3 g of material obtained in Example 1 were added to 1 liter of Soy milk during agitation.
3 g of material obtained in Example 2 were added to 1 liter of Soy milk during agitation.
Potassium magnesium citrate was prepared according to U.S. Pat. No. 4,985,593. 5.6 g Of the prepared material were added to 1 liter of soy milk and the samples stored refrigerated.
2.2 g of Tri magnesium citrate nona hydrate were added to 1 liter of soy milk during the agitation.
2.2 g of Tri magnesium citrate nona hydrate and 0.2 g of Kappa Carragenan were added to 1 liter of soy milk during the agitation.
2.2 g of Tri magnesium citrate nona hydrate and 2.2 g of tri potassium citrate were added to 1 liter of soy milk during the agitation.

With Magnesium Potassium Citrate [Example 1] the Mg content ([1]; 1 liter, after addition during agitation (initial)) was 297 mg/L, the “Mg content in upper layer” value ([1]; after retention of two days without agitation) was 289 mg/L and the “Mg content in the upper level” value ([2]; after 1 week) was 471 mg/L. The “Mg content in the upper level” value ([2]; after 2 weeks) was 470 mg/L, the “Mg content in the upper level” value ([2]; after 3 weeks) was 471 mg/L and the “Mg content in the upper level” value ([2]; after 4 weeks) was 470 mg/L. The “Mg content in the upper level” value ([2]; after 5 weeks) was 462 mg/L, the “Mg content in the upper level” value ([2]; after 6 weeks) was 468 mg/L and the “Mg content in the upper level” value ([2]; after 7 weeks) was 470 mg/L. The “Mg content in the upper level” value ([2]; after 8 weeks) was 468 mg/L, the “Mg content in the upper level” value ([2]; after 9 weeks) was 467 mg/L and the “Mg content in the upper level” value ([2]; after 10 weeks) was 465 mg/L. The “Mg content in the upper level” value ([2]; after 11 weeks) was 471 mg/L, the “Mg content in the upper level” value ([2]; after 12 weeks) was 465 mg/L and the “Mg content in the upper level” value ([2]; after 13 weeks) was 466 mg/L. For the same molecule, the “Mg content in the upper level” value ([2]; initial) was 468 mg/L, the Mg content [3] was 445 mg/L and the “Mg content in upper layer” value [3] was 444 mg/L.
For Magnesium Potassium Citrate [Example 2], the Mg content [3] was 547 mg/L and the “Mg content in upper layer” value [3] was 545 mg/L.
In the case of `O=C([O-])CC(O)(CC(=O)[O-])C(=O)[O-].O=C([O-])CC(O)(CC(=O)[O-])C(=O)[O-].[K+].[K+].[K+].[K+].[Mg+2]` [Potassium magnesium citrate], the “initial concentration of Mg” value ([3]; 5.6 g per 1 liter) is reported as 373 mg/L and the “Mg content in the upper level” value ([3]; stored refrigerated, after 48 hours of retention) is reported as 372 mg/L.
With `O.O.O.O.O.O.O.O.O.O=C([O-])CC(O)(CC(=O)[O-])C(=O)[O-].O=C([O-])CC(O)(CC(=O)[O-])C(=O)[O-].[Mg+2].[Mg+2].[Mg+2]` [Tri magnesium citrate nona hydrate] the Mg content [3] was 475 mg/L, the “Mg content in upper layer” value [3] was 307 mg/L and the “Magnesium sediment during two days” value ([3]; two days without agitation) was 35 percents.

Reference: patent publication US8465783B2, “Production of potassium magnesium citrate and its applications” (Gadot Biochemical Industries Ltd., priority 2008, dated 2013)
